In patent US20140113904A1, “TREATMENT OF CANCER WITH TOR KINASE INHIBITORS” (SIGNAL PHARMACEUTICALS, LLC, priority 2012, published 2014):

Tests used:
GSK3β (S9) = test: Phospho-GSK3Beta (S9) in PC-3 cell lysates, MSD (Compound 2); format: cell-based; conditions: Homo sapiens; PC-3, 1 hour; read-out: mTORC2 GSK3β (S9) IC50
Protocol: The direct substrate for mTORC1 was 4E-BP1(T46) and the indirect downstream substrate was S6RP (S235/S236). The direct substrate for mTORC2 was AKT (S473) and the indirect downstream substrates measured were GSK3β(S9) and PRAS40 (T246). Additionally, the phosphorylation status of AKT (T308), a phosphorylation site for PDK1, was monitored. Concentration-response curves were plotted and IC50 values determined. Cells were plated in 96-well flat bottom plates at the required density (PC-3 cells/well) and the cells were allowed to equilibrate at 37° C., 5% CO2 overnight. […] After the incubation period, the culture media was removed carefully with an aspirator. The plate was placed on ice and 50 μL of 1× Tris Lysis Buffer was added to each well. The plate was placed on a shaker at 4° C. for 1 hour to lyse the cells. At that point, the plate was either frozen at -80° C. for later analysis or immediately assayed for phosphoproteins as described below. To monitor interassay variability, a reference standard was included in the assay for PC-3 cells and the coefficient of variation for assay of […]) was 9.3% (n=50) and for assay of p-AKT (S473) was 28.6% (n=50). The assay plate was incubated with 150 μL of MSD Blocking Buffer for 1 hour with shaking at room temperature. […] Then 150 μL of 1×MSD Read Buffer T was added to each well. The plate was read on the SECTOR Imager plate reader.

4E-BP1(T46) = test: Phospho-4E-BP1(T46) in PC3 cell lysates, Luminex multiplex; format: cell-based, human; conditions: PC3, 1 hour exposure; read-out: p-4E-BP1(T46) IC50
Description: The direct substrate for TORC1 was 4E-BP 1(T46) and indirect downstream substrate was S6RP(S235/S236). The direct substrate for TORC2 was Akt(S473) and indirect downstream substrates measured were GSK3β(S9) and PRAS40(T246). Additionally, the phosphorylation status of Akt(T308), a phosphorylation site for PDK1 was monitored.
The multiplex Luminex assay format differs from conventional enzyme-linked immunosorbent assay (ELISA) in that the multiplex capture antibody is attached to a polystyrene bead whereas the ELISA capture antibody is attached to the microplate well. The use of the suspension bead-based technology enables the multiplexing capabilities of the Luminex assays. The xMAP® technology uses 5.6 micron polystyrene microspheres, which are internally dyed with red and infrared fluorophores of differing intensities. Each bead is given a unique number, or bead region, allowing differentiation of one bead from another. Beads covalently bound to different specific antibodies can be mixed in the same assay, utilizing a 96-well microplate format. At the completion of the sandwich immunoassay, beads can be read, using the Luminex 100™ or Luminex 200 detection system, in single-file by dual lasers for classification and quantification of each analyte. […]

Row | SMILES | IC50 (GSK3β (S9)) | IC50 (4E-BP1(T46))
1 | CCN1C(=O)CNc2ncc(-c3ccc(-c4nc[nH]n4)nc3C)nc21 [Compound 2, 1-ethyl-7-(2-methyl-6-(1H-1,2,4-triazol-3-yl)pyridin-3-yl)-3,4-dihydropyrazino[2,3-b]pyrazin-2(1H)-one] | 17 nM | 
2 | CO[C@H]1CC[C@H](N2C(=O)CNc3ncc(-c4ccc(C(C)(C)O)nc4)nc32)CC1 [Compound 1, 7-(6-(2-hydroxypropan-2-yl)pyridin-3-yl)-1-((1r,4r)-4-methoxycyclohexyl)-3,4-dihydropyrazino-[2,3-b]pyrazin-2(1H)-one] |  | 410 nM
